Experimental data reported in ChEMBL document CHEMBL4507270 (2021).
The source made the active and inactive calls. The rule behind the calls is not given here.

Assays:
[1] = target: Epithelial discoidin domain-containing receptor 1 (Homo sapiens, UniProt Q08345); test: NanoBRET assay (SGC Frankfurt) with DDR1
[2] = tested on: Tyrosine-protein kinase ABL1 (Homo sapiens), P00519 [H396P]
[3] = tested on: Tyrosine-protein kinase ABL1 (Homo sapiens), P00519 [T315I]
[4] = target: Activin receptor type-2A (Homo sapiens) (UniProt P27037)
[5] = tested on: ALK tyrosine kinase receptor (Homo sapiens), Q9UM73 [C1156Y]
[6] = target: Serine/threonine-protein kinase BRSK1 (Homo sapiens) (UniProt Q8TDC3)
[7] = target: Calcium/calmodulin-dependent protein kinase type 1D (Homo sapiens) (UniProt Q8IU85)
[8] = target: Calcium/calmodulin-dependent protein kinase type II subunit beta (Homo sapiens) (UniProt Q13554)
[9] = target: Death-associated protein kinase 2 (Homo sapiens) (UniProt Q9UIK4)
[10] = target: Dual specificity tyrosine-phosphorylation-regulated kinase 1B (Homo sapiens) (UniProt Q9Y463)
[11] = target: Ephrin type-A receptor 2 (Homo sapiens) (UniProt P29317)
[12] = target: Ephrin type-B receptor 6 (Homo sapiens) (UniProt O15197)
[13] = target: Receptor tyrosine-protein kinase erbB-3 (Homo sapiens) (UniProt P21860)
[14] = target: Mitogen-activated protein kinase 6 (Homo sapiens) (UniProt Q16659)
[15] = target: Mitogen-activated protein kinase 7 (Homo sapiens) (UniProt Q13164)
[16] = target: Fibroblast growth factor receptor 2 (Homo sapiens) (UniProt P21802)
[17] = target: Receptor-type tyrosine-protein kinase FLT3 (Homo sapiens) (UniProt P36888)
[18] = target: Cyclin-G-associated kinase (Homo sapiens) (UniProt O14976)
[19] = target: Inhibitor of nuclear factor kappa-B kinase subunit beta (Homo sapiens) (UniProt O14920)
[20] = target: Interleukin-1 receptor-associated kinase 4 (Homo sapiens) (UniProt Q9NWZ3)
[21] = tested on: Mast/stem cell growth factor receptor Kit (Homo sapiens), P10721 [D816H]
[22] = target: Mitogen-activated protein kinase kinase kinase kinase 3 (Homo sapiens) (UniProt Q8IVH8)
[23] = target: Mitogen-activated protein kinase kinase kinase kinase 4 (Homo sapiens) (UniProt O95819)
[24] = target: Microtubule-associated serine/threonine-protein kinase 1 (Homo sapiens) (UniProt Q9Y2H9)
[25] = tested on: Hepatocyte growth factor receptor (Homo sapiens), P08581 [M1250T]
[26] = target: Serine/threonine-protein kinase MRCK alpha (Homo sapiens) (UniProt Q5VT25)
[27] = tested on: Phosphatidylinositol 4,5-bisphosphate 3-kinase catalytic subunit alpha isoform (Homo sapiens), P42336 [H1047L]
[28] = target: Phosphatidylinositol 4-kinase beta (Homo sapiens) (UniProt Q9UBF8)
[29] = target: Serine/threonine-protein kinase pim-2 (Homo sapiens) (UniProt Q9P1W9)
[30] = target: Protein-tyrosine kinase 2-beta (Homo sapiens) (UniProt Q14289)
[31] = target: Serine/threonine-protein kinase SIK3 (Homo sapiens) (UniProt Q9Y2K2)
[32] = target: Serine/threonine-protein kinase RIO2 (Homo sapiens) (UniProt Q9BVS4)
[33] = target: Ribosomal protein S6 kinase alpha-5 (Homo sapiens) (UniProt O75582)
[34] = target: Ribosomal protein S6 kinase alpha-3 (Homo sapiens) (UniProt P51812)
[35] = target: Ribosomal protein S6 kinase alpha-2 (Homo sapiens) (UniProt Q15349)
[36] = target: Ribosomal protein S6 kinase alpha-6 (Homo sapiens) (UniProt Q9UK32)
[37] = target: STE20-like serine/threonine-protein kinase (Homo sapiens) (UniProt Q9H2G2)
[38] = target: SNF-related serine/threonine-protein kinase (Homo sapiens) (UniProt Q9NRH2)
[39] = target: STE20/SPS1-related proline-alanine-rich protein kinase (Homo sapiens) (UniProt Q9UEW8)
[40] = target: Serine/threonine-protein kinase TAO3 (Homo sapiens) (UniProt Q9H2K8)
[41] = target: Angiopoietin-1 receptor (Homo sapiens, UniProt Q02763)
[42] = target: Tyrosine-protein kinase TXK (Homo sapiens) (UniProt P42681)
[43] = target: Serine/threonine-protein kinase ULK1 (Homo sapiens) (UniProt O75385)
[44] = target: Beta-2 adrenergic receptor (Homo sapiens) (UniProt P07550); conditions: Compound concentration 10.0 uM
[45] = target: Fibroblast growth factor receptor 3 (Homo sapiens, UniProt P22607); test: Bayer in-house kinase assay with […]
[46] = Compound concentration 1000.0 nM
[47] = Compound concentration 100.0 nM

Epithelial discoidin domain-containing receptor 1, sequence (Q08345 whole entry, the tested form may be a part): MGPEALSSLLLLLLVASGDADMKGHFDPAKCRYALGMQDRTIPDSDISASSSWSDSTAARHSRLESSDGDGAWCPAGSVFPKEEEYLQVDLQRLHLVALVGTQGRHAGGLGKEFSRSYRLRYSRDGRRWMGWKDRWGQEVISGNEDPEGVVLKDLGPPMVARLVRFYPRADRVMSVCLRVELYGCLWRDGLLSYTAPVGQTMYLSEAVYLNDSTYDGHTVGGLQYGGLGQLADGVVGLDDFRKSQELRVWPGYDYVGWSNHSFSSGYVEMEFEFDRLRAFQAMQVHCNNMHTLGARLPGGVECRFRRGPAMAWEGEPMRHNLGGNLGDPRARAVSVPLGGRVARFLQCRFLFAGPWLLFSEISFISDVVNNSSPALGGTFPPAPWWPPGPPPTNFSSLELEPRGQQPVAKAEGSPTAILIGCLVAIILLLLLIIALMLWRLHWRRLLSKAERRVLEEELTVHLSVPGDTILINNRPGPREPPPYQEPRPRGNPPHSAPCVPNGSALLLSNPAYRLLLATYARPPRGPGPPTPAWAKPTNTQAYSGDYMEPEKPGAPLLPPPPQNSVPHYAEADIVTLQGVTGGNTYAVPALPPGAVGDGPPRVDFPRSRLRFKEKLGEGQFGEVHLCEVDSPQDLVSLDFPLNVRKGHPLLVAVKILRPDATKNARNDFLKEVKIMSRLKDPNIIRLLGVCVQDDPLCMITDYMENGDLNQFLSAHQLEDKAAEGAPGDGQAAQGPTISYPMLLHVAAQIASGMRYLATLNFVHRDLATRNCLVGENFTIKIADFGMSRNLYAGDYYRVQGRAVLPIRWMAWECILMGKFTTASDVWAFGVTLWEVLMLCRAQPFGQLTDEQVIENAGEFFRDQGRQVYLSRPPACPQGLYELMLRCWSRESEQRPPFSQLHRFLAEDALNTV
Mitogen-activated protein kinase 6 (Homo sapiens), sequence (Q16659 whole entry): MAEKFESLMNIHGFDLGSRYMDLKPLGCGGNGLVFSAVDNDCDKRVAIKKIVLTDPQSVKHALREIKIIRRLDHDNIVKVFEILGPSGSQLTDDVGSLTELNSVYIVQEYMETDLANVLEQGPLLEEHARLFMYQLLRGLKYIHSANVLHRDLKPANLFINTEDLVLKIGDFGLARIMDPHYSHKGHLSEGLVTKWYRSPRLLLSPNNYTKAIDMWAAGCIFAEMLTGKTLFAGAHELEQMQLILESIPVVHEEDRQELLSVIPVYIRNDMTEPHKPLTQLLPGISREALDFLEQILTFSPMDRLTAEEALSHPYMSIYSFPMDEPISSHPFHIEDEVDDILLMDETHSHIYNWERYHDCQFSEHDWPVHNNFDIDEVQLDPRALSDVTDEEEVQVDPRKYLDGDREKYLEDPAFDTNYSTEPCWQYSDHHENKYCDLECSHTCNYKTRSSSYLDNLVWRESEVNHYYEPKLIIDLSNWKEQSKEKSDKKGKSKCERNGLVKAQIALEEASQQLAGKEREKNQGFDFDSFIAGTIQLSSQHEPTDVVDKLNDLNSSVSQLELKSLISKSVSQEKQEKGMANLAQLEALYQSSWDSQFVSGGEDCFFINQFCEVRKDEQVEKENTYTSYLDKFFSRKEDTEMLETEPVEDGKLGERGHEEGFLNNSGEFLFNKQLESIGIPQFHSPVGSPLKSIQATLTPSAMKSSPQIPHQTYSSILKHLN
Mitogen-activated protein kinase 7 (Homo sapiens), sequence (Q13164 2-816 limits assumed): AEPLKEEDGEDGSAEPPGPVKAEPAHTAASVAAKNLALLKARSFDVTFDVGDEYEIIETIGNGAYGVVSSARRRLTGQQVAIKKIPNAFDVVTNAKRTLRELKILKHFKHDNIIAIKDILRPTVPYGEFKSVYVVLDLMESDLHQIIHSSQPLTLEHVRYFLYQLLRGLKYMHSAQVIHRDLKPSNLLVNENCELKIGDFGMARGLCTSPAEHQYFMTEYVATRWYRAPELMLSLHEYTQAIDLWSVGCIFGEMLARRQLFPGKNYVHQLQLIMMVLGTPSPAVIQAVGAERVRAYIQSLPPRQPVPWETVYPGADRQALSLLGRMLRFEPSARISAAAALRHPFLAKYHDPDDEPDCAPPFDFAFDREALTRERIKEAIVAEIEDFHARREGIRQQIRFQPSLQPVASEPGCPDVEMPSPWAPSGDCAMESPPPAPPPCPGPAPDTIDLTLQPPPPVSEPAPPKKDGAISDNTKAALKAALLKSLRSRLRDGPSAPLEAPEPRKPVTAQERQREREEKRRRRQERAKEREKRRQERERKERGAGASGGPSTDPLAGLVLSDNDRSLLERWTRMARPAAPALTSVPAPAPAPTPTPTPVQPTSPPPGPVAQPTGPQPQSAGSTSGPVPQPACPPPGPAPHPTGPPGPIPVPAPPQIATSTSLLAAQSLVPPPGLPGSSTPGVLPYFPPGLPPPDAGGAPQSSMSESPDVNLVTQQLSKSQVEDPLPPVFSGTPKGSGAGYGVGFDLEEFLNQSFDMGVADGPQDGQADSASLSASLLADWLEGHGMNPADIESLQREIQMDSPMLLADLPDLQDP
Microtubule-associated serine/threonine-protein kinase 1 (Homo sapiens), sequence (Q9Y2H9 whole entry, looked up): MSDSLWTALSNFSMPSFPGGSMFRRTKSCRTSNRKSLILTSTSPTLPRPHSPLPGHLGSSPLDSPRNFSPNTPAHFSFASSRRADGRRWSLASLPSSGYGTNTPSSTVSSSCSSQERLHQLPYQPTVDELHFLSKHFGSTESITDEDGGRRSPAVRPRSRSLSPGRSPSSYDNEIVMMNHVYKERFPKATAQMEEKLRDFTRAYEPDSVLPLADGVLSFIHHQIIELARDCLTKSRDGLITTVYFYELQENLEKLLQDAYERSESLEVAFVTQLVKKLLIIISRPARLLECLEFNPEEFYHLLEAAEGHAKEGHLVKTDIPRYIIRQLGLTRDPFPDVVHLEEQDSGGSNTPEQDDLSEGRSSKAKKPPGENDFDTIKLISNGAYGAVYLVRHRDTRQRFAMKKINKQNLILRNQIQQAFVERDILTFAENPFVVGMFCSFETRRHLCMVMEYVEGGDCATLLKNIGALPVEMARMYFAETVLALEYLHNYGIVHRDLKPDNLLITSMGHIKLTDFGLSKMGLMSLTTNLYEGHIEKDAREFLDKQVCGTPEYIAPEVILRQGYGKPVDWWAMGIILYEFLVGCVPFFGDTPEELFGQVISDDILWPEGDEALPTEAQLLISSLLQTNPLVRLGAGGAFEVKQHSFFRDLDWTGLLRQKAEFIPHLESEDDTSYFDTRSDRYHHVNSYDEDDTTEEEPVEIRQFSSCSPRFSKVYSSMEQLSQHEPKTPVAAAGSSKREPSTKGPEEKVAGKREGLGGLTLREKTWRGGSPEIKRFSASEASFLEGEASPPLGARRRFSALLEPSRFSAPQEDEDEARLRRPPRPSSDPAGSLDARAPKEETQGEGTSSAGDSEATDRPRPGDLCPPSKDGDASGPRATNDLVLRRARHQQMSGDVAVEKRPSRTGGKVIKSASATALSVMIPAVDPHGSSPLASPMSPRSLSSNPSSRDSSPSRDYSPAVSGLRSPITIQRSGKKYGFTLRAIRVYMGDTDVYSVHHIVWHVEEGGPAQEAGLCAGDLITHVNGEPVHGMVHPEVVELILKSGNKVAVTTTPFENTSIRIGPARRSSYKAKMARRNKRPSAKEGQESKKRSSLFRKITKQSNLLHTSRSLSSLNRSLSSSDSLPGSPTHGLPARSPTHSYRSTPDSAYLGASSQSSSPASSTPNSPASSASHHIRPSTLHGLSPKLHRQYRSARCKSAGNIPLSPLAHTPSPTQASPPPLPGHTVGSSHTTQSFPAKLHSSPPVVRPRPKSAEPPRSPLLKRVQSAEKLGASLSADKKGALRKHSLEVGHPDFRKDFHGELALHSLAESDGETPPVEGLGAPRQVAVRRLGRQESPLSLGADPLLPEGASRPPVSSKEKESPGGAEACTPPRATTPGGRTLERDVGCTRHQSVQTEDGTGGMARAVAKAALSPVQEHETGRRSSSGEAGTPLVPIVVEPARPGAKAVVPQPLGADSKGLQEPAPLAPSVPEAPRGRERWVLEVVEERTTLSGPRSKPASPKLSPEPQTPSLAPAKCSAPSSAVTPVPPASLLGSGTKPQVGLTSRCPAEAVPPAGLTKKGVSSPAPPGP
Serine/threonine-protein kinase BRSK1 (Homo sapiens), sequence (Q8TDC3 whole entry): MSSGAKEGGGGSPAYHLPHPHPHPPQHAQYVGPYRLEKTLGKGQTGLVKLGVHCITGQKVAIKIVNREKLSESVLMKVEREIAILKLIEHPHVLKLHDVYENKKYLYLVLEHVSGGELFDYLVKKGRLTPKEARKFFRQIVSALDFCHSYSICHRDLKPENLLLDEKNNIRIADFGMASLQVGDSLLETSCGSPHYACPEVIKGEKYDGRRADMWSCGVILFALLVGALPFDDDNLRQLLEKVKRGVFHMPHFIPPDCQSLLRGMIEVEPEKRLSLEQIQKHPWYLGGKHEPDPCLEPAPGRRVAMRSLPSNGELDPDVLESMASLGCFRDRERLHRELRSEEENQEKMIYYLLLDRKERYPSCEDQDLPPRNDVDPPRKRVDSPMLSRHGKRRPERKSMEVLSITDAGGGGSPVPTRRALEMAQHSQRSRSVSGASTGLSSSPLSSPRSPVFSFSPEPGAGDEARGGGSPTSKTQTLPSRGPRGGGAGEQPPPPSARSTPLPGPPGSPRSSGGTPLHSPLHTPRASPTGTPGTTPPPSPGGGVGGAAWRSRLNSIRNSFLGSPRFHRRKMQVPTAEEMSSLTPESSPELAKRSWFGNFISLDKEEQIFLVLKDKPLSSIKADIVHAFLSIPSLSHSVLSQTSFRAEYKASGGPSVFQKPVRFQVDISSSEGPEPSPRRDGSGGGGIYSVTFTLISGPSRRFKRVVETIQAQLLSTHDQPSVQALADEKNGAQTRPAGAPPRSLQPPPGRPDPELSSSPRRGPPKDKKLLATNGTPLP

Compound: Cc1cc(NC(=O)c2cccc(S(F)(F)(F)(F)F)c2)cc(-n2ccn3nc(-c4cccnc4)cc23)c1 [BAY-309]
- EC50 [1]: 200 nM (not active)
- IC50 [1]: 340 nM (not active)
- residual activity [2, 46]: 100%
- residual activity [3, 46]: 60.8%
- residual activity [4, 46]: 100%
- residual activity [5, 46]: 100%
- residual activity [6, 46]: 100%
- residual activity [7, 46]: 94.9%
- residual activity [8, 46]: 100%
- residual activity [9, 46]: 100%
- residual activity [10, 46]: 61.2%
- residual activity [11, 46]: 100%
- residual activity [12, 46]: 100%
- residual activity [13, 46]: 49.4%
- residual activity [14, 46]: 100%
- residual activity [15, 46]: 90%
- residual activity [16, 46]: 81.7%
- residual activity [17, 46]: 100%
- residual activity [18, 46]: 100%
- residual activity [19, 46]: 65.5%
- residual activity [20, 46]: 98.4%
- residual activity [21, 46]: 73.1%
- residual activity [22, 46]: 100%
- residual activity [23, 46]: 100%
- residual activity [24, 46]: 100%
- residual activity [25, 46]: 83.2%
- residual activity [26, 46]: 88.5%
- residual activity [27, 46]: 100%
- residual activity [28, 46]: 78.6%
- residual activity [29, 46]: 100%
- residual activity [30, 46]: 100%
- residual activity [31, 46]: 100%
- residual activity [32, 46]: 49.7%
- residual activity [33, 46]: 100%
- residual activity [34, 46]: 89%
- residual activity [35, 46]: 84%
- residual activity [36, 46]: 100%
- residual activity [37, 46]: 95.2%
- residual activity [38, 46]: 100%
- residual activity [39, 46]: 100%
- residual activity [40, 46]: 100%
- residual activity [41, 46]: 84.2%
- residual activity [42, 46]: 56.2%
- residual activity [43, 46]: 100%
- inhibition [44]: -7.8%

Compound: Cc1cc(C)c(-n2ccn3nc(-c4cccnc4)cc23)cc1NC(=O)c1cc(C#N)cc(S(F)(F)(F)(F)F)c1 [BAY-826]
- IC50 [45]: > 10000 nM (not active)
- EC50 [1]: 1.5 nM (active)
- IC50 [1]: 0.9 nM (active)
- residual activity [2, 47]: 87.5%
- residual activity [3, 47]: 83.8%
- residual activity [4, 47]: 100%
- residual activity [5, 47]: 76.6%
- residual activity [6, 47]: 84%
- residual activity [7, 47]: 71.6%
- residual activity [8, 47]: 87.5%
- residual activity [9, 47]: 75.8%
- residual activity [10, 47]: 100%
- residual activity [11, 47]: 79.6%
- residual activity [12, 47]: 3%
- residual activity [13, 47]: 96.2%
- residual activity [14, 47]: 85.8%
- residual activity [15, 47]: 100%
- residual activity [16, 47]: 84.3%
- residual activity [17, 47]: 84.1%
- residual activity [18, 47]: 83.3%
- residual activity [19, 47]: 100%
- residual activity [20, 47]: 100%
- residual activity [21, 47]: 81.8%
- residual activity [22, 47]: 89.6%
- residual activity [23, 47]: 95.1%
- residual activity [24, 47]: 100%
- residual activity [25, 47]: 100%
- residual activity [26, 47]: 100%
- residual activity [27, 47]: 82.7%
- residual activity [28, 47]: 64.7%
- residual activity [29, 47]: 100%
- residual activity [30, 47]: 81.4%
- residual activity [31, 47]: 75.3%
- residual activity [32, 47]: 74.2%
- residual activity [33, 47]: 83.2%
- residual activity [34, 47]: 65.1%
- residual activity [35, 47]: 90.9%
- residual activity [36, 47]: 80.4%
- residual activity [37, 47]: 48.5%
- residual activity [38, 47]: 100%
- residual activity [39, 47]: 64.6%
- residual activity [40, 47]: 47.1%
- residual activity [41, 47]: 3.1%
- residual activity [42, 47]: 98.3%
- residual activity [43, 47]: 100%
- inhibition [44]: 25.6%
